Experimental data: patent publication US9296774B2, “Halogenated dideoxy sugar derivates, preparation method and application thereof” (Suzhou Harmony Biotechnology Co., Ltd., priority 2009, dated 2016)
Entries after “also recorded” stand apart in the source; their conditions may differ.

Assays:
[1] = tested on: AsPc human pancreatic cancer cells; test: Mouse transplant tumor, AsPc human pancreatic cancer; conditions: for inhibitive effect on mouse transplant tumor (in words): 125 mg/kg; for Inhibition of tumor growth / Weight of tumor / weight end / weight start: 125 mg/kg once a day for 7 days; for weight end: animal weight at end; for weight start: animal weight at start;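 for all read-outs here: Saline-treated mice served as the control group, with a CTX-treated group as positive reference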
Method: (§1) Saline solution was used as a control. The positive group CTX was treated with the compounds at an amount of 0.4 ml/20 g. The compounds were applied once a day for consecutive 7 days.

[2] = in vivo; conditions: mouse, ip
[3] = tested on: anaplastic thyroid carcinoma TA-K cells; test: Mouse transplant tumor, human anaplastic thyroid carcinoma TA-K; conditions: for inhibitive effect on mouse transplant tumor (in words): anaplastic thyroid carcinoma TA-K, 125 mg/kg; for Inhibition of tumor growth / Weight of tumor / weight end / weight start: human anaplastic thyroid carcinoma TA-K, 125 mg/kg once a day for 7 days; for weight end: animal weight at end; for weight start: animal weight at start;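 for all read-outs here: Tumor-bearing mice compared against a saline-treated control group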
Method: as §1

[4] = tested on: 05-732 human bone tumor; test: Mouse transplant tumor, 05-732 human osteosarcoma; conditions: for inhibitive effect on mouse transplant tumor (in words): 05-732 human bone tumor, 125 mg/kg; for Inhibtion of tumor growth / Weight of tumor / weight end / weight start: 05-732 human osteosarcoma, 125 mg/kg once a day for 7 days; for weight end: animal weight at end; for weight start: animal weight at start
Method: as §1

[5] = tested on: MGC human stomach cancer cells; test: Mouse transplant tumor, MGC human stomach cancer; conditions: for inhibitive effect on mouse transplant tumor (in words): 125 mg/kg; for Inhibition of tumor growth / Weight of tumor / weight end / weight start: 125 mg/kg once a day for 7 days; for weight end: animal weight at end; for weight start: animal weight at start;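 for all read-outs here: control group received saline vehicle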
Method: Saline solution was used as a control. The positive group CTX was treated with the compounds at an amount of 0.4 ml/20 g. The compounds were applied once a day for consecutive 7 days. The animals were then compensated.

[6] = tested on: B16 malignant melanoma; test: Mouse transplant tumor, B16 malignant melanoma; conditions: for Inhibition of tumor growth (%) / Weight of tumor / weight end / weight start: B16, 125 mg/kg once a day for 7 days; for weight end: body weight at end; for weight start: body weight at start; for inhibitive effect on mouse transplant tumor (in words): B16 malignant melanoma, 125 mg/kg
Method: as §1

[7] = in vivo; conditions: mouse, po
[8] = tested on: MX-1 human breast cancer cells; test: Mouse transplant tumor, MX-1 human breast cancer; conditions: for inhibitive effect on mouse transplant tumor (in words): 125 mg/kg; for Inhibition of tumor growth / Weight of tumor / weight end / weight start: 125 mg/kg once a day for 7 days; for weight end: animal weight at end; for weight start: animal weight at start;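 for all read-outs here: mice given saline served as the control group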
Method: as §1

[9] = tested on: mouse; test: Acute toxicity (LD50), mouse ip injection; conditions: mouse ip after injection
[10] = tested on: mouse; test: Acute toxicity (LD50), mouse ig

Compound | inhibitive effect on mouse transplant tumor (in words) [1] | Inhibition of tumor growth [1] | Weight of tumor [1] | LD50 [2] [mg/kg] | inhibitive effect on mouse transplant tumor (in words) [3] | Inhibition of tumor growth [3] | Weight of tumor [3] | inhibitive effect on mouse transplant tumor (in words) [4] | Inhibtion of tumor growth [4] | Weight of tumor [4] | inhibitive effect on mouse transplant tumor (in words) [5] | Inhibition of tumor growth [5] | Weight of tumor [5] | Inhibition of tumor growth (%) [6] [%] | Weight of tumor [6] | inhibitive effect on mouse transplant tumor (in words) [6] | LD50 [7] [mg/kg] | inhibitive effect on mouse transplant tumor (in words) [8] | Inhibition of tumor growth [8] | Weight of tumor [8] | also measured
CC(=O)OCC1OC(OP(=O)(NCCCl)NCCCl)C(Br)CC1OC(C)=O (single isomer, unassigned) [Compound 7] | good inhibitive effect; also recorded: significant effect | 73.6 | 0.6 | 316 | good inhibitive effect; also recorded: significant effect | 84.2 | 0.4 | good inhibitive effect; also recorded: significant effect | 81.3 | 0.5 | good inhibitive effect; also recorded: significant effect | 83.8 | 0.4 | 80.4 | 0.5 | good inhibitive effect; also recorded: significant effect | 2220 | good inhibitive effect; also recorded: significant effect | 80.8 | 0.5 | weight end [1]: 18.4; weight start [1]: 18.3; weight end [3]: 18.4; weight start [3]: 18.3; weight end [4]: 18.4; weight start [4]: 18.3; weight end [5]: 18.4; weight start [5]: 18.3; weight end [6]: 18.4; weight start [6]: 18.3; weight end [8]: 18.4; weight start [8]: 18.3
CC(=O)OCC1OC(OP(=O)(NCCCl)NCCCl)CC(Br)C1OC(C)=O (single isomer, unassigned) [Compound 6] | – | – | – | – | – | – | – | – | – | – | – | – | – | – | – | – | – | – | – | – | LD50 [9]: 307.1 mg/kg; LD50 [10]: 2205.8 mg/kg
COc1cc(C2c3cc4c(cc3C(C3OC(COC(C)=O)C(OC(C)=O)CC3Br)C3COC(=O)C23)OCO4)cc(OC)c1O (stereo not shown) [Compound 14] | good inhibitive effect; also recorded: significant effect | 75.2 | 0.3 | 300 | good inhibitive effect; also recorded: significant effect | 76.2 | 0.6 | good inhibitive effect; also recorded: significant effect | 72.3 | 0.8 | good inhibitive effect; also recorded: significant effect | 71.9 | 0.7 | 76.2 | 0.6 | good inhibitive effect; also recorded: significant effect | 1970 | good inhibitive effect; also recorded: significant effect | 76.3 | 0.6 | –
COc1cc(C2c3cc4c(cc3C(C3CC(Br)C(OC(C)=O)C(COC(C)=O)O3)C3COC(=O)C23)OCO4)cc(OC)c1O (stereo not shown) [Compound 13] | good inhibitive effect | – | – | 299 | good inhibitive effect | – | – | good inhibitive effect | – | – | good inhibitive effect | – | – | – | – | good inhibitive effect | 1830 | good inhibitive effect | – | – | –
CC(=O)OCC1OC(Br)C(Br)CC1OC(C)=O (single isomer, unassigned) [Compound 4] | – | – | – | – | – | – | – | – | – | – | – | – | – | – | – | – | – | – | – | – | LD50 [9]: 356.2 mg/kg; LD50 [10]: 2389.2 mg/kg
CC(=O)OCC1OC(OP(=O)(O)N(CCCl)CCCl)C(Br)CC1OC(C)=O (stereo not shown) [Compound 12] | significant effect | 77.5 | 0.5 | – | significant effect | 75.8 | 0.6 | significant effect | 75.1 | 0.5 | significant effect | 80.5 | 0.5 | 79.5 | 0.5 | significant effect | – | significant effect | 82.1 | 0.4 | LD50 [9]: 306.4 mg/kg; weight end [1]: 18.4; weight start [1]: 18.2; weight end [3]: 18.4; weight start [3]: 18.2; LD50 [10]: 2101.4 mg/kg; weight end [4]: 18.4; weight start [4]: 18.2; weight end [5]: 18.4; weight start [5]: 18.2; weight end [6]: 18.4; weight start [6]: 18.2; weight end [8]: 18.4; weight start [8]: 18.2
CC(=O)OCC1OC(OP(=O)(NCCCl)NCCCl)CC(Br)C1OC(C)=O (single isomer, unassigned) [Compound 5] | good inhibitive effect; also recorded: significant effect | 81.5 | 0.4 | 301 | good inhibitive effect; also recorded: significant effect | 76.6 | 0.6 | good inhibitive effect; also recorded: significant effect | 74.9 | 0.7 | good inhibitive effect; also recorded: significant effect | 75.7 | 0.6 | 76.4 | 0.6 | good inhibitive effect; also recorded: significant effect | 2120 | good inhibitive effect; also recorded: significant effect | 83.6 | 0.4 | weight end [1]: 18.6; weight start [1]: 18.3; weight end [3]: 18.6; weight start [3]: 18.3; weight end [4]: 18.6; weight start [4]: 18.3; weight end [5]: 18.6; weight start [5]: 18.3; weight end [6]: 18.6; weight start [6]: 18.3; weight end [8]: 18.6; weight start [8]: 18.3
CC(=O)OCC1OC(OP(=O)(O)N(CCCl)CCCl)C(Br)CC1OC(C)=O (stereo not shown) [Compound 11] | – | – | – | 323 | – | – | – | – | – | – | – | – | – | – | – | – | 2030 | – | – | – | –
CC(=O)OCC1OC(OP(=O)(NCCCl)NCCCl)C(Br)CC1OC(C)=O (single isomer, unassigned) [Compound 8] | – | – | – | – | – | – | – | – | – | – | – | – | – | – | – | – | – | – | – | – | LD50 [9]: 301.4 mg/kg; LD50 [10]: 2017.5 mg/kg
CC(=O)OCC1OC(Br)C(Br)CC1OC(C)=O (single isomer, unassigned) [Compound 3] | good inhibitive effect; also recorded: significant effect | 77.3 | 0.5 | 359 | good inhibitive effect; also recorded: significant effect | 73.2 | 0.7 | good inhibitive effect; also recorded: significant effect | 71.5 | 0.8 | good inhibitive effect; also recorded: significant effect | 72.5 | 0.7 | 76.8 | 0.6 | good inhibitive effect; also recorded: significant effect | 2320 | good inhibitive effect; also recorded: significant effect | 75.8 | 0.6 | weight end [1]: 18.3; weight start [1]: 18.2; weight end [3]: 18.3; weight start [3]: 18.2; weight end [4]: 18.3; weight start [4]: 18.2; weight end [5]: 18.3; weight start [5]: 18.2; weight end [6]: 18.3; weight start [6]: 18.2; weight end [8]: 18.3; weight start [8]: 18.2
CC(=O)OCC1OC(OP(=O)(O)N(CCCl)CCCl)CC(Br)C1OC(C)=O (stereo not shown) [Compound 9] | – | – | – | 307 | – | – | – | – | – | – | – | – | – | – | – | – | 2140 | – | – | – | –
